Read-outs that look alike come from different tables or passages of the source.
What was measured:
[1] = tested on: HLA-B*1301 allele; conditions: human, in vivo
Method: To further verify the correlation of HLA-B*1301 allele, the 454 sequencing platform (Genome Sequencer FLX system developed by Roche 454 Life Sciences) was employed to conduct HLA sorting on another 37 DHS patients in the case samples and another 201 non-DHS patients in the clinical control samples (randomizedly selected from a total of 1089 validation controls). Wherein, PCR amplification was conducted on genomic DNA isolated from the peripheral blood of the samples for the HLA-B*1301 allele using primer pair 1 and primer pair 2, respectively. The primer pair 1 consists of the single-stranded DNA as set forth in SEQ ID No.1 and SEQ ID No.2; and the primer pair 2 consists of the single-stranded DNA as set forth in SEQ ID No.3 and SEQ ID No.4.

[2] = both, human, in vivo
Source text: 76 Chinese DHS patients (39 for the discovery-phase study, and 37 for the validation-phase study) were included in the study. […] The diagnosis of DHS was based on the medical history, clinical manifestations and laboratory examinations of the patients.

[3] = tested on: HLA-B*1301 allele; conditions: human, in vivo; remark: listed apart in the source
Source text: The 454 sequencing platform (Genome Sequencer FLX system developed by Roche 454 Life Sciences) was employed to conduct HLA sorting on 76 DHS patients in the case samples and 1034 non-DHS patients in the clinical control samples, and the sorting results are shown in Table 1.
The HLA-B*1301 heterozygous carriers were at a risk of DHS of ORhet=61×886/10×144=37.53 (confidence level, 0.95; confidence interval (18.80, 74.94)); the HLA-B*1301 homozygous carriers were at a risk of DHS of ORhom=5×886/10×4=110.75 (confidence level, 0.95; confidence interval (25.85, 474.54)).
A recent review regarding the Asian population deduced that the prevalence rate of DHS was 1.4% (Lorenz, Wozel et al. 2012). Based on this prevalence rate, the positive predictive value was 7.9%, the negative predictive value was 99.8%, the positive likelihood ratio was 6.07, and the negative likelihood ratio was 0.1536, upon calculation. According to the positive likelihood ratio of 6.07, the risk of DHS in individuals with the HLA-B*1301 will be raised to 7.9%; and according to the negative likelihood ratio of 0.1536, the incidence of DHS in individuals […] will be decreased from 1.4% to 0.2%.

[4] = tested on: HLA-B*1301 allele; conditions: both, human, in vivo

OR of DHS for HLA-B*1301 [1]: 23.54 | patients abnormally increased in the level of serum bilirubin [2]: 35 patients | patients decreased in the level of hemoglobin [2]: 37 patients | patients significantly increased in the level of alanine transaminase [2]: 58 patients | patients significantly increased in the level of aspartate aminotransferase [2]: 49 patients | skin lesion: exfoliative dermatitis [2]: 38.5% | skin lesion: maculopapule [2]: 57.7% | skin lesion: scarlatiniform erythema [2]: 7.7% | system involvement: abnormal liver function [2]: 74.4% | system involvement: fever [2]: 83.1% | system involvement: swollen lymph glands [2]: 34.6% | skin lesion: oral erosion ([2]; po): 1.3% | HLA-B*1301 allele carried by DHS patients [3]: 86.8% | HLA-B*1301 allele carried by non-DHS patients [3]: 14.3% | risk of DHS in individuals with the HLA-B*1301 [3]: 7.9% | OR of DHS for HLA-B*1301 [4]: 21.67
Structure (SMILES): Nc1ccc(S(=O)(=O)c2ccc(N)cc2)cc1 [DDS, 4,4′-diamino diphenyl sulfone]
